Here are results for one compound from patent US10517870B2, “Aryl substituted bicycle heteroaryl compounds” (Bristol-Myers Squibb Company, priority 2015, dated 2019).

Structures are written as SMILES.

For one test, the target named is T1, PAR4 (Homo sapiens, UniProt Q96RI0).
T1 construct: expressed in transfected cells; host or cells: HEK293 PAR4 Clone 1.2A
T1 sequence (Q96RI0 18-385): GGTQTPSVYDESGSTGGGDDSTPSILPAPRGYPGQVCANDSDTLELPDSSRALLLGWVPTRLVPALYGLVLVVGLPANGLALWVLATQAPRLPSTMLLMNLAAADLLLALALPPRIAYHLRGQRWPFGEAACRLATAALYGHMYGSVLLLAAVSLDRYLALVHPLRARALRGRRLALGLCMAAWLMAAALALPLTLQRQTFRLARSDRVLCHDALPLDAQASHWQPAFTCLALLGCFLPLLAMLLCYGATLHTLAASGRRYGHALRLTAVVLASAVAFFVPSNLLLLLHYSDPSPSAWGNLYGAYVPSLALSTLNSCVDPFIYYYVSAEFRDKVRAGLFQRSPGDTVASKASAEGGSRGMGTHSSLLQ
In words: PAR4 FLIPR assay (calcium mobilization, antagonist activity) in PAR4-expressing HEK293 cells. In kind it is cell-based. The text has this: The FLIPR assay is an exemplary in vitro assay for measuring the activity of the PAR4 antagonists of the present invention. In this assay, intracellular calcium mobilization is induced in PAR4 expressing cells by a PAR4 agonist and calcium mobilization is monitored.
HEK293 cells stably expressing PAR4 were generated by a standard method of transfection of human PAR4 (F2R23) cDNA expression vector and selected based on PAR4 protein expression or mRNA expression. […] These cells also express endogenous PAR1 and can elicit calcium signal upon stimulation with PAR1 agonist peptide. Therefore, the same cells were also used to determine selectivity against PAR1 and agonist activity for both receptors. Cells from HEK293 PAR4 Clone 1.2A (BMS Arctic ID 383940) were propagated and used for calcium mobilization studies.
FLIPR-based calcium mobilization assay in HEK293 cells was used to measure PAR4 antagonism, agonism, and selectivity against PAR1. The activity of the PAR4 antagonists of the present invention were tested in PAR4 expressing cells by monitoring H-Ala-Phe(4-F)-[…]NH2-induced intracellular calcium mobilization. Counter screens for agonist activity and PAR1 antagonist activity were also performed. Briefly, PAR1/PAR4-expressing HEK293 cells were grown in DMEM (Life Technology, Grand Island, N.Y.) containing 10% heat-inactivated FBS, 1% Penicillin-Streptomycin, 10 μg/mL blasticidin, and 100 μg/mL Zeocin at 37° C. with 5% CO2. Cells were plated overnight prior to the experiment in a black 384-well Purecoat Amine clear bottom plate (Becton Dickinson Biosciences, San Jose, Calif.) at 10,000 cells/well in 30 μL growth medium and incubated in a humidified chamber at 37° C. with 5% CO2 overnight. Prior to compound addition, the cell medium was replaced with 40 μL of IX calcium and magnesium-containing Hank's Balanced Saline Solution (HBSS) (with 20 mM HEPES) and 1:1000 diluted fluorescent calcium indicator (Codex Biosolutions, Gaithersburg, Md.). After a 30 minute incubation period at 37° C., and a further 30 minute incubation and equilibration period at room temperature, 20 μL test compound (diluted in 1×HBSS buffer) was added at various concentrations at 0.17% dimethyl sulfoxide (DMSO) final concentration. Changes in fluorescence intensity were measured using a Functional Drug Screening System (FDSS, Hamamatsu, Japan) to determine agonist activities. The cells were then incubated for 30 minutes at room temperature followed by addition of 20 μL of agonist peptide for antagonist activity measurement. […] Compound potency was derived from 11-point concentration-response curves.

Another test deals with C33A (HPV−) cells. In words: Cell proliferation/viability assay, C33A cells. As to conditions: Homo sapiens, C-33-A, 96 h, read-out: C33A (HPV−) Proliferation IC50 (μM). The test is classed as cell-based. The method, boiled down: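 Cells plated in antibiotic-free growth medium, compound added 2 h later (0.5% DMSO final) and incubated 4 days at 37 °C. Viability by CellTiter Blue (ex 530/em 590 nm) or CellTiter Glo luminescence; IC50 from four-parameter logistic fit of % inhibition.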

Take `COc1ccc(-c2cc(C)cc3nc(OC(F)F)cnc23)cc1` [Example 6, 2-(difluoromethoxy)-5-(4-methoxyphenyl)-7-methylquinoxaline]: the IC50 stood at 2.4 µM at PAR4 and 44.8 µM in the test with C33A (HPV−) cells.
